Measured values reported in patent publication US20250092353A1, “COMMENSAL FUNGUS AND USES THEREOF” (YEDA RESEARCH AND DEVELOPMENT CO. LTD., priority 2022, published 2025).

Key:
[1] = Biolog Phenotype MicroArrays for chemical sensitivity (PM21-PM25); type: cell-based; conditions: compared to C. albicans; normalized AUC of growth
Method: FIGS. 2A-2F include micrographs, graphs, a plot, and a curve showing in vitro culture characteristics of K. weizmannii. (2A) Representative images of C. albicans and K. weizmannii in liquid media in presence of filament-inducing conditions, n=3 independent experiments. (2B) A graph showing largest differences in growth between K. weizmannii and C. albicans with different carbon sources, based on a z-score > or <2. Differences were calculated using the normalized area under the curve (AUC) of K. weizmannii and C. albicans. Normalization of the AUC are based on the growth of both species with glucose. Size of data points corresponds to the normalized AUC of K. weizmannii with the corresponding carbon source. All measurements were done using the Biolog Phenotype MicroArrays in biological triplicates. […] The data points are color-coded according to the different types of carbon sources. (2C) A graph showing the largest differences in growth between K. weizmannii and C. albicans with different nitrogen sources, based on a z-score greater than or less than 2. Differences were calculated using AUC of K. weizmannii and C. albicans and normalized based on the growth of both species with glutamine. […] GFP expressing C. albicans was detected by flowcytometry to discriminate between fungi, n=2 independent experiments.

[2] = tested on: serum IgA and IgG; test: In vitro serum antibody binding assay (sera of colonized mice); type: in vivo; conditions: single-colonized animals
Method: Blood was collected from mice at rested at RT for 1 hour, followed by centrifugation 2,000 g 10 min. Serum supernatant was collected and froze at −80° C. until use. Cultured fungi were normalized to OD600=1 in PBS supplemented with 1% bovine serum albumin and 0.01% sodium azide (PBA solution). Cultured fungi were incubated with 20× diluted mouse serum on ice for 45 minutes, then washed twice with PBA, followed by staining with anti-mouse IgA and IgG. Samples were recorded on Cytek Aurora and analyzed in FlowJo (Treestar). Antibody binding intensity was normalized to the negative controls. Isotype control, non-stained and no-serum were used as negative controls.

[3] = tested on: Th17 cells; test: RORγt+ Th17 cells in mesenteric and peripheral lymph nodes of colonized mice; type: in vivo; conditions: 5 weeks colonization
Text: FIGS. 4A-4F include graphs showing humoral and cellular immune responses to C. albicans and Kazachstania sp. (4A) Flow cytometric analysis of myeloid blood cell compartment of mice 4 weeks colonized with C. albicans or K. weizmannii. Neutrophils, classical and non-classical monocytes are defined as Ly6G+CD 115−, Ly6C+CD 115+, and […], respectively. N=8-21 mice, pooled from 3 independent experiments. Gating strategy, left, results, right. (4B) Flow cytometric analysis of humoral anti-fungal reactivity. Gating strategy for the determination of serum immunoglobulin binding to cultured C. albicans or K. weizmannii. (4C) Anti-C. albicans and K. weizmannii IgA and IgG serum reactivity of single-colonized animals, measured as shown in (4B). Note that most but not all animals harbor cross-reactive sera. (4D) Representative gating strategy of RORγt+ T cells (left); percentage of RORγt+ cells among TCRβ CD4+ T cells 5 weeks upon C. albicans or K. weizmannii colonization, n=3-5 mice per group, 3 independent experiments (right). […] EC damage was assessed using the LDH assay as described in (Allert et al., 2018). […]
Methods adhered to published guidelines (Cossarizza et al., 2019). Flow cytometry samples were recorded on BD LSR Fortessa 4 lasers or Cytek Aurora followed by data analysis using the FlowJo software (Treestar).

[4] = tested on: CD4+ T cells in PBMCs; test: Antigen-reactive T cell enrichment (ARTE); type: cell-based, human; conditions: peripheral blood of healthy individuals, 40 μg/ml fungal lysates
Method: PBMCs were freshly isolated from EDTA blood samples on the day of blood donation by density gradient centrifugation (Biocoll; Biochrom, Berlin, Germany). Antigen-reactive T cell enrichment (ARTE) was performed as follows. Briefly, 2×10e^7 PBMCs were plated in RPMI-1640 medium (GIBCO), supplemented with 5% (v/v) human AB-serum (Sigma Aldrich, Schnelldorf, Germany) at a cell density of 1×10e^7 PBMCs/2 cm^2 in cell culture plates and stimulated with 40 μg/ml fungal lysates for 7 hr in presence of 1 μg/ml CD40 and 1 μg/ml CD28 pure antibody (both Miltenyi Biotec, Bergisch Gladbach, Germany). 1 μg/ml Brefeldin A (Sigma Aldrich) was added for the last 2 hr. Cells were labeled with CD154-Biotin followed by anti-Biotin MicroBeads (CD154 MicroBead Kit; Miltenyi Biotec) and magnetically enriched by two sequential MS columns (Miltenyi Biotec). Surface staining was performed on the first column, followed by fixation, permeabilization (Inside stain Kit, Miltenyi Biotec) and intracellular staining on the second column. […]
Frequencies of antigen-specific T cells were determined based on the total cell count of CD154+ T cells after enrichment, normalized to the total number of CD4+ T cells applied on the column. […]

With Kazachstania weizmannii [K. weizmannii] the “resistance to chemical inhibitors, azoles” value [1] was “relative resistance to propriconazole and fucinazole”, the “sensitivity to chemical inhibitors, chlorides and bromides” value [1] was “more sensitive to chlorides and bromides” and the “anti-fungal serum IgA and IgG titers” value [2] was “induced robust anti-fungal serum IgA and IgG titers in most animals”. The Th17 cell expansion [3] was “no Th17 cell expansion was observed” and the “polarization of fungus-reactive T cells” value [4] was “of the Th1 type”.
